Measured values taken from patent US10150764B2, “Substituted benzene compounds” (Epizyme, Inc., priority 2013, dated 2018).
Where a name gives a salt, the structure may show the parent alone.

What was measured:
[1] = target: wild-type EZH2 (PRC2 enzyme) (Homo sapiens (Human), UniProt Q15910); assay: PRC2 enzyme assay on peptide substrate, wild-type EZH2 (H3K27me0 peptide, 3H-SAM Flashplate); assay type: biochemical; settings: wild-type PRC2 4 nM, read-out: WT EZH2 IC50
Experimental: (§1) Human PRC2 enzymes were purified as 4-component enzyme complexes co-expressed in Spodoptera frugiperda (sf9) cells using a baculovirus expression system. […] The EED subunit contained an N-terminal FLAG tag that was used to purify the entire 4-component complex from sf9 cell lysates.
(§2) The assays were all performed in a buffer consisting of 20 mM bicine (pH=7.6), 0.5 mM DTT, 0.005% BSG and 0.002% Tween20, prepared on the day of use. […] DMSO (1 μL) was added to columns 11, 12, 23, 24, rows A-H for the maximum signal control, and SAH, a known product and inhibitor of PRC2 (1 μL) was added to columns 11, 12, 23, 24, rows I-P for the minimum signal control. A cocktail (40 μL) containing the wild-type PRC2 enzyme and H3K27me0 peptide or any of the Y641 mutant enzymes and H3K27me2 peptide was added by Multidrop Combi (Thermo). The compounds were allowed to incubate with PRC2 for 30 min at 25° C., then a cocktail (10 μL) containing a mixture of non-radioactive and ^3H-SAM was added to initiate the reaction (final volume=51 μL). […] The assays were stopped by the addition of non-radioactive SAM (10 μL) to a final concentration of 600 μM, which dilutes the ^3H-SAM to a level where its incorporation into the peptide substrate is no longer detectable. 50 of the reaction in the 384-well polypropylene plate was then transferred to a 384-well Flashplate and the biotinylated peptides were allowed to bind to the streptavidin surface for at least 1 h before being washed three times with 0.1% Tween20 in a Biotek ELx405 plate washer. The plates were then read in a PerkinElmer TopCount platereader to measure the quantity of ^3H-labeled peptide bound to the Flashplate surface, measured as disintegrations per minute (dpm) or alternatively, referred to as counts per minute (cpm).

[2] = target: EZH2 Y641F mutant (PRC2 enzyme) (Homo sapiens (Human), UniProt Q15910, Y641F); assay: PRC2 enzyme assay on peptide substrate, EZH2 Y641F mutant (H3K27me2 peptide, 3H-SAM Flashplate); assay type: biochemical; settings: Y641F mutant PRC2 4 nM
Chain of EZH2 Y641F mutant (PRC2 enzyme) (Q15910 whole entry Y641F): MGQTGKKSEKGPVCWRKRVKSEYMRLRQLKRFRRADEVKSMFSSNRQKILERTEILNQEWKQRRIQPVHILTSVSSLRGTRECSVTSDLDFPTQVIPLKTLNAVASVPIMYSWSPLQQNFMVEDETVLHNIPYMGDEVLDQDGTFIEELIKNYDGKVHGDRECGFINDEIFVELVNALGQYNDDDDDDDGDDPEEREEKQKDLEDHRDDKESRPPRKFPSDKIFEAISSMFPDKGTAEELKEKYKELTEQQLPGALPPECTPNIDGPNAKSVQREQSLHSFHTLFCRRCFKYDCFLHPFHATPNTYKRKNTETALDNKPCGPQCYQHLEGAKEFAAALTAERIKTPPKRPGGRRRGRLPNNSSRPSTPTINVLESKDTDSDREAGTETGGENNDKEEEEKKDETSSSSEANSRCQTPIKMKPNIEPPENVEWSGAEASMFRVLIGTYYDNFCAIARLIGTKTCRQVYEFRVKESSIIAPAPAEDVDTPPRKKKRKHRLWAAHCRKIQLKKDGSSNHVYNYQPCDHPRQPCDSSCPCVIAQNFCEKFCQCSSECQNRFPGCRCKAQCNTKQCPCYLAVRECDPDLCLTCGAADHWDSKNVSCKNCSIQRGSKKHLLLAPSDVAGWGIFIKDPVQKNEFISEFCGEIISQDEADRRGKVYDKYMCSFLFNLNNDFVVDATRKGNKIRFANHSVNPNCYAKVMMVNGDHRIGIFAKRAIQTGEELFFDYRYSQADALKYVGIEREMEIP
Chain of EZH2 Y641F mutant (PRC2 enzyme) (O75530 whole entry partner): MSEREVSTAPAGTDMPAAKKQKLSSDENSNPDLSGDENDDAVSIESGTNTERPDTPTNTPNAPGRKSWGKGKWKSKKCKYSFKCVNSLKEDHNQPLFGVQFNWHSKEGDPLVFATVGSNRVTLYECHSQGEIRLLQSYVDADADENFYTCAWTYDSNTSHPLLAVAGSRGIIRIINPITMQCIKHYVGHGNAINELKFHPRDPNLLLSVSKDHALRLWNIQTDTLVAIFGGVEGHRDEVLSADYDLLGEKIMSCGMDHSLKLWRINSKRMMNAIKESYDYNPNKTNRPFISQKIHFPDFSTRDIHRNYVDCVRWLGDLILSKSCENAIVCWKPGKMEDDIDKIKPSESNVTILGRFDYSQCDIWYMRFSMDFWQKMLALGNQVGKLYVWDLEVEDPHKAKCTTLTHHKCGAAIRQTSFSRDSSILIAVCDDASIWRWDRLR
Chain of EZH2 Y641F mutant (PRC2 enzyme) (Q15022 whole entry partner): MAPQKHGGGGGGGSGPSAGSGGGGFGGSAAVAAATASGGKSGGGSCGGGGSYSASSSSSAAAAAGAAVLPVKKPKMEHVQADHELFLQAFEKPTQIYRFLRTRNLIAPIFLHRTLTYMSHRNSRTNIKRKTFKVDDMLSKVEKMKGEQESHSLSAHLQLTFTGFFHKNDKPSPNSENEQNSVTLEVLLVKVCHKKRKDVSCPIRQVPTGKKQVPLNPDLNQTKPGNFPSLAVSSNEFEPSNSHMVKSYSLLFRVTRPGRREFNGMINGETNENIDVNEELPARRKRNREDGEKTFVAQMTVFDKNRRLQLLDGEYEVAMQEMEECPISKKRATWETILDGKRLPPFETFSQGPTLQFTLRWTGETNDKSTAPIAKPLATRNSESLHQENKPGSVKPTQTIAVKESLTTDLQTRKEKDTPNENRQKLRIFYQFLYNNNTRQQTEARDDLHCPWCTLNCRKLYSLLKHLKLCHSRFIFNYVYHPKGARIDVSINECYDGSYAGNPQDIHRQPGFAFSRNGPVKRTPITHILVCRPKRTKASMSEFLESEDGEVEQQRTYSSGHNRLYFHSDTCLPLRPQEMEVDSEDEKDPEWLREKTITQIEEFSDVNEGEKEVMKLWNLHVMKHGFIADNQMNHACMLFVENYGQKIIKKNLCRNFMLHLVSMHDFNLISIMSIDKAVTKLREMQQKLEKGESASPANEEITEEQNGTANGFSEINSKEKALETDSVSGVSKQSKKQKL
Chain of EZH2 Y641F mutant (PRC2 enzyme) (Q09028 whole entry partner): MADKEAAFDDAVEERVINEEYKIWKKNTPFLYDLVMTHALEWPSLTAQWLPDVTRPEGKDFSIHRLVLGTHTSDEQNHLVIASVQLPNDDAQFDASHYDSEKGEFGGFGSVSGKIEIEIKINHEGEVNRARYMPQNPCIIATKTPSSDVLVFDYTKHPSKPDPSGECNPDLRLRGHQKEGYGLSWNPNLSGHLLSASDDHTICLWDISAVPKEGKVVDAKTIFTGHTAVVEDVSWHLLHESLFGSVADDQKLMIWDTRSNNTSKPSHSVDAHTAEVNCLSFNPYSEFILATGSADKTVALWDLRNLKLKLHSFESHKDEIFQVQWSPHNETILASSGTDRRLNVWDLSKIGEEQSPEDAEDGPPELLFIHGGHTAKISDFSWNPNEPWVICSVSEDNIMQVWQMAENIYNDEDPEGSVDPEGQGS
Experimental: as §1, §2

Chain of wild-type EZH2 (PRC2 enzyme) (Q15910 whole entry): as the sequence (Q15910 whole entry Y641F) above, with F641Y counted along it
Chain of wild-type EZH2 (PRC2 enzyme) (O75530 whole entry partner): as the sequence (O75530 whole entry partner) above
Chain of wild-type EZH2 (PRC2 enzyme) (Q15022 whole entry partner): as the sequence (Q15022 whole entry partner) above
Chain of wild-type EZH2 (PRC2 enzyme) (Q09028 whole entry partner): as the sequence (Q09028 whole entry partner) above

SMILES	IC50 [1]	IC50 [2]
CCO[C@@H]1COC[C@H]1N(CC)c1cc(Cl)cc(C(=O)NCc2c(C)[nH]n(C)c2=O)c1C (relative stereo) [Compound 43, 5-chloro-N-((2,5-dimethyl-3-oxo-2,3-dihydro-1H-pyrazol-4-yl)methyl)-3-(((trans)-4-ethoxytetrahydrofuran-3-yl)(ethyl)amino)-2-methylbenzamide]	> 50000 nM	> 50000 nM
CCN(c1cc(Cl)cc(C(=O)NCc2c(C)nn(C)c2OC)c1C)[C@@H]1COC[C@H]1OCCOC (relative stereo) [Compound 44, 5-chloro-3-(ethyl((trans)-4-(2-methoxyethoxy)tetrahydrofuran-3-yl)amino)-N-((5-methoxy-1,3-dimethyl-1H-pyrazol-4-yl)methyl)-2-methylbenzamide]	> 50000 nM	–
CCN(c1cc(Cl)cc(C(=O)NCc2c(C)[nH]n(C)c2=O)c1C)[C@@H]1COC[C@H]1OCCOC (relative stereo) [Compound 45, 5-chloro-N-((2,5-dimethyl-3-oxo-2,3-dihydro-1H-pyrazol-4-yl)methyl)-3-(ethyl((trans)-4-(2-methoxyethoxy)tetrahydrofuran-3-yl)amino)-2-methylbenzamide]	> 50000 nM	> 50000 nM
CCN(c1cc(Cl)cc(C(=O)NCc2c(C)nc3cc[nH]n3c2=O)c1C)[C@H]1CC[C@H](N(C)C)CC1 [Compound 8, 5-chloro-3-(((trans)-4-(dimethylamino)cyclohexyl)(ethyl)amino)-2-methyl-N-((5-methyl-7-oxo-1,7-dihydropyrazolo[1,5-a]pyrimidin-6-yl)methyl)benzamide]	20000 nM	5820 nM
CCN(c1cc(Cl)cc(C(=O)NCc2c(C)cc3nc(C)[nH]n3c2=O)c1C)[C@H]1CC[C@H](N(C)C)CC1 [Compound 9, 5-chloro-N-((2,7-dimethyl-5-oxo-3,5-dihydro-[1,2,4]triazolo[1,5-a]pyridin-6-yl)methyl)-3-(((trans)-4-(dimethylamino)cyclohexyl)(ethyl)amino)-2-methylbenzamide]	34500 nM	11500 nM
CCN(c1cc(Cl)cc(C(=O)NCc2cn(C)[nH]c2=O)c1C)[C@H]1CC[C@H](N(C)C)CC1 [Compound 31a, 5-chloro-3-(ethyl((trans)-4-(dimethylamino)cyclohexyl]amino)-2-methyl-N-((1-methyl-3-oxo-2,3-dihydro-1H-pyrazol-4-yl)methyl]benzamide formate]	505 nM	230 nM
CCN(c1cc(Cl)cc(C(=O)NCc2c(SC)n(C)[nH]c2=O)c1C)[C@H]1CC[C@H](N(C)C)CC1 [Compound 31b, 5-chloro-3-{ethyl[(trans)-4-(dimethylamino)cyclohexyl]amino}-2-methyl-N-{[1-methyl-5-(methylsulfanyl)-3-oxo-2,3-dihydro-1H-pyrazol-4-yl]methyl}benzamide Formate]	1240 nM	1070 nM
CCN(c1cc(Cl)cc(C(=O)NCc2c(C)[nH]n(C(C)C)c2=O)c1C)[C@H]1CC[C@H](N(C)C)CC1 [Compound 37, 5-chloro-3-(((trans)-4-(dimethylamino)cyclohexyl)(ethyl)amino)-N-((2-isopropyl-5-methyl-3-oxo-2,3-dihydro-1H-pyrazol-4-yl)methyl)-2-methylbenzamide]	15600 nM	2660 nM
CCN(c1cc(Cl)cc(C(=O)NCc2c(C(C)C)[nH]n(C)c2=O)c1C)[C@H]1CC[C@H](N(C)C)CC1 [Compound 39, 5-chloro-3-(((trans)-4-(dimethylamino)cyclohexyl)(ethyl)amino)-N-((5-isopropyl-2-methyl-3-oxo-2,3-dihydro-1H-pyrazol-4-yl)methyl)-2-methylbenzamide]	6580 nM	2230 nM
CCCCc1[nH]n(C)c(=O)c1CNC(=O)c1cc(Cl)cc(N(CC)[C@H]2CC[C@H](N(C)C)CC2)c1C [Compound 40, N-((5-butyl-2-methyl-3-oxo-2,3-dihydro-1H-pyrazol-4-yl)methyl)-5-chloro-3-(((trans)-4-(dimethylamino)cyclohexyl)(ethyl)amino)-2-methylbenzamide]	689 nM	166 nM
CCN(c1cc(Cl)cc(C(=O)NCc2c(OC)nn(CC)c2C)c1C)C1CCN(CCOC)CC1 [Compound 74]	12600 nM	7250 nM
CCN(c1cc(Cl)cc(C(=O)NCc2c(OC)nn(C)c2C)c1C)C1CCN(CCOC)CC1 [Compound 76, 5-chloro-3-(ethyl(1-(2-methoxyethyl)piperidin-4-yl)amino)-N-((3-methoxy-1,5-dimethyl-1H-pyrazol-4-yl)methyl)-2-methylbenzamide]	> 50000 nM	> 50000 nM

Continued, values first:

IC50 [1]	IC50 [2]	SMILES
> 50000 nM	> 50000 nM	CCN(c1cc(Cl)cc(C(=O)NCc2c(OC)nn3c(C)cc(C)nc23)c1C)[C@H]1CC[C@H](N(C)C)CC1 [Compound 48, 5-chloro-3-(((trans)-4-(dimethylamino)cyclohexyl)(ethyl)amino)-N-((2-methoxy-5,7-dimethylpyrazolo[1,5-a]pyrimidin-3-yl)methyl)-2-methylbenzamide]
10400 nM	5160 nM	CCN(c1cc(Cl)cc(C(=O)NCc2c(=O)[nH]n3c(C)cc(C)nc23)c1C)[C@H]1CC[C@H](N(C)C)CC1 [Compound 49, 5-chloro-N-((5,7-dimethyl-2-oxo-1,2-dihydropyrazolo[1,5-a]pyrimidin-3-yl)methyl)-3-(((trans)-4-(dimethylamino)cyclohexyl)(ethyl)amino)-2-methylbenzamide]
27600 nM	2710 nM	CCN(c1cc(Cl)cc(C(=O)NCc2c(OC)nn3cccnc23)c1C)[C@H]1CC[C@H](N(C)C)CC1 [Compound 50, 5-chloro-3-(((trans)-4(dimethylamino)cyclohexyl)(ethyl)amino)-N-((2-methoxypyrazolo[1,5-a]pyrimidin-3-yl)methyl)-2-methylbenzamide]
2180 nM	625 nM	CCN(c1cc(-c2ccc(CN3CCOCC3)cc2)cc(C(=O)NCc2c(OC)nn(C)c2C)c1C)[C@H]1CC[C@H](N(C)C)CC1 [Compound 53, 5-(((trans)-4-(dimethylamino)cyclohexyl) (ethyl)amino)-N-((3-methoxy-1,5-dimethyl-1H-pyrazol-4-yl)methyl)-4-methyl-4′-(morpholinomethyl)-[1,1′-biphenyl]-3-carboxamide]
17500 nM	4480 nM	CCn1nc(OC)c(CNC(=O)c2cc(Cl)cc(N(CC)[C@H]3CC[C@H](N(C)CCOC)CC3)c2C)c1C [Compound 64, 5-chloro-3-(ethyl ((trans)-4-((2-methoxyethyl)-(methyl)-amino)-cyclohexyl)amino)-N-((1-ethyl-3-methoxy-5-methyl-1H-pyrazol-4-yl)methyl)-2-methylbenzamide]
1140 nM	442 nM	CCn1[nH]c(=O)c(CNC(=O)c2cc(Cl)cc(N(CC)[C@H]3CC[C@H](N(C)CCOC)CC3)c2C)c1C [Compound 65, 5-chloro-3-(ethyl((trans)-4-((2-methoxyethyl)-(methyl)-amino)-cyclohexyl)-amino)-N-((1-ethyl-5-methyl-3-oxo-2,3-dihydro-1H-pyrazol-4-yl)methyl)-2-methylbenzamide]
10200 nM	2340 nM	CCN(c1cc(Cl)cc(C(=O)NCc2c(OC)nn(C)c2C)c1C)[C@H]1CC[C@H](N(C)Cc2cccnc2)CC1 [Compound 66, 5-chloro-3-(ethyl((trans)-4-(methyl(pyridin-3-ylmethyl)amino)cyclohexyl)amino)-N-((3-methoxy-1,5-dimethyl-1H-pyrazol-4-yl)methyl)-2-methylbenzamide]
319 nM	60 nM	CCN(c1cc(Cl)cc(C(=O)NCc2c(C)n(C)[nH]c2=O)c1C)[C@H]1CC[C@H](N(C)Cc2cccnc2)CC1 [Compound 67, 5-chloro-N-((1,5-dimethyl-3-oxo-2,3-dihydro-1H-pyrazol-4-yl)methyl)-3-(ethyl((trans)-4-(methyl(pyridin-3-ylmethyl)amino)cyclohexyl)amino)-2-methylbenzamide]
2590 nM	–	CCN(c1cc(Cl)cc(C(=O)NCc2c(OC)nn(C)c2C)c1C)[C@H]1CC[C@H](N(C)Cc2cccc(OCCOC)c2)CC1 [Compound 68, 5-chloro-3-(ethyl((trans)-4-((3-(2-methoxyethoxy)benzyl)(methyl)amino)cyclohexyl)amino)-N-((3-methoxy-1,5-dimethyl-1H-pyrazol-4-yl)methyl)-2-methylbenzamide]
136 nM	31 nM	CCN(c1cc(Cl)cc(C(=O)NCc2c(C)n(C)[nH]c2=O)c1C)[C@H]1CC[C@H](N(C)Cc2cccc(OCCOC)c2)CC1 [Compound 69, 5-chloro-N-((1,5-dimethyl-3-oxo-2,3-dihydro-1H-pyrazol-4-yl)methyl)-3-(ethyl((trans)-4-((3-(2-methoxyethoxy)benzyl)(methyl)amino)cyclohexyl)amino)-2-methylbenzamide]
1920 nM	504 nM	CCn1[nH]c(=O)c(CNC(=O)c2cc(Cl)cc(N(CC)[C@H]3CC[C@H](N(C)Cc4ccc(OC)cc4)CC3)c2C)c1C [Compound 71, 5-chloro-3-(ethyl((trans)-4-((4-methoxybenzyl)-(methyl)-amino)-cyclohexyl)-amino)-N-((1-ethyl-5-methyl-3-oxo-2,3-dihydro-1H-pyrazol-4-yl)methyl)-2-methylbenzamide]
> 50000 nM	5680 nM	CCN(c1cc(Cl)cc(C(=O)NCc2c(OC)nn(C)c2C)c1C)[C@H]1CC[C@H](N(C)C(C)c2cccnc2)CC1 (stereo partly drawn) [Compound 72, 5-chloro-3-(ethyl((trans)-4-(methyl(1-(pyridin-3-yl)ethyl)amino)cyclohexyl)amino)-N-((3-methoxy-1,5-dimethyl-1H-pyrazol-4-yl)methyl)-2-methylbenzamide]
1290 nM	149 nM	CCN(c1cc(Cl)cc(C(=O)NCc2c(C)n(C)[nH]c2=O)c1C)[C@H]1CC[C@H](N(C)C(C)c2cccnc2)CC1 (stereo partly drawn) [Compound 73, 5-chloro-N-((1,5-dimethyl-3-oxo-2,3-dihydro-1H-pyrazol-4-yl)methyl)-3-(ethyl((trans)-4-(methyl(1-(pyridin-3-yl)ethyl)amino)cyclohexyl)amino)-2-methylbenzamide]
